Patent US20070259837A1, “Use of Non-Glucocorticoid Steroids for the Treatment of Muscular Dystrophy” (SANTHERA PHARMACEUTICALS (SCHWEIZ) AG, priority 2004, published 2007)
Where two headings read alike, the source gives them in different places.

System: utrophin protein in human muscle cells derived from DMD patients
Assay: Cell-based ELISA for normalized utrophin protein level in primary human myotube cultures
Conditions: for % UTR vs. PDN (normalized utrophin protein as % of PDN-treated sister cultures): same experiment; for activity at 0.5 µM: Myotube, read-out: % UTR vs. DMSO (normalized utrophin protein over DMSO-solvent treated control)
Method: The method used to detect and determine utrophin-inducing activity of non-glucocorticoid steroids has been described previously (Courdier-Fruh, I., Barman, L., Briguet, A. & Meier, T.; 2002, Neuromuscul. Disord.; 12 Suppl:S95). Briefly, primary human muscle cell cultures were prepared according to standard protocols (Askanas V, Kwan H, Alvarez R B, Engel W K, Kobayashi T, Martinuzzi A, Hawkins E F., 1987, J Neurocytol., 16:523-537). Test compounds and the glucocorticoid 6α-methylprednisolone-21 sodium succinate (Pharmacia & Upjohn; Solu-Medrol®, PDN) as reference compound were applied at 500 nM final concentration as soon as myoblasts started to differentiate into myotubes. Incubation with the test compound was ended as soon as well differentiated myotubes have formed, typically resulting in an incubation time with a test compound for 3-7 days.
Normalized concentrations of utrophin protein in human muscle cells cultured in microtiter plates were determined by a cell-based enzyme-linked immunosorbent assay (ELISA) procedure that allows a successive readout for the cell density and utrophin protein level. For calibration, the cell density and differentiation was determined by absorbance measurements of the total dehydrogenase enzyme activity in each well using the colorimetric CellTiter 96®AQ One Solution Reagent Proliferation Assay (Promega) according to the manufacturer's recommendation. Subsequently, cells were fixed, washed, permeabilized with 0.5% (v/v) Triton X-100 and unspecific antibody binding-sites were blocked by standard procedures. Utrophin protein levels were determined immunologically with utrophin-specific primary antibodies (mouse monoclonal antibody to the amino terminal portion of utrophin, NCL-DRP2, Novocastra Laboratories) and with appropriate peroxidase-coupled secondary antibodies using QuantaBlu™ Fluorogenic Peroxidase Substrate Kit (Pierce) for detection. Fluorescence measurements were carried out with a multilabel counter (Wallac) at λex=325 nm and at λem=420 nm. The primary readout of this signal is presented in arbitrary units. For calibration, the arbitrary units representing the relative utrophin protein content of each well were divided by the corresponding cell-titer absorbance value to correct for cell density. For comparison between experiments, the cell-titer corrected readout for utrophin protein content in each well was expressed in percent of solvent treated control cultures (set to 100%). PDN was included in all experiments as reference glucocorticoid, N=3-5 for each compound tested.
Non-glucocorticoid test compounds, applied in a concentration of 500 nM, were regarded as “positive” in case the increase in the level of utrophin protein was at least 20% (mean value) over control cultures treated with the appropriate dilution of DMSO solvent as control and containing no test compound.
A range of different pharmaceutical compounds were tested for their ability to increase levels of utrophin protein in primary human myotube cultures. The cell-based ELISA protocol used to detect the level of utrophin protein is provided above and described in Courdier-Fruh, I., Barman, L., Briguet, A. & Meier, T, 2002, Neuromuscul. Disord.: 12, Suppl:S95. Briefly, fixed and permeabilized human muscle cells derived from DMD patients and cultured in 96-well cell culture plates were incubated with antibodies specific for utrophin at a dilution of 1:1'000 in blocking solution (phosphate buffered saline (PBS) supplemented with 2% fetal calf serum and 1% bovine serum albumin) for 10-15 hours at 4° C. Following several washing steps with 0.1% Triton X-100 in PBS, peroxidase-coupled secondary antibodies diluted 1:3'000 in blocking solution were applied in each well for 1-2 hours at room temperature. Signal detection, data acquisition and normalization was performed as described above and in Courdier-Fruh, I., Barman, L., Briguet, A. & Meier, T, 2002, Neuromuscul. Disord.: 12, Suppl:S95. […]

[1] = 500 nM compound, human muscle cultures, mean value, N=3-6

Compound	% UTR vs. PDN (normalized utrophin protein as % of PDN-treated sister cultures) [1] [%]	activity at 0.5 µM (Homo sapiens) [%]	activity at 0.5 µM [1] [%]	% UTR vs. DMSO (normalized utrophin protein over DMSO-solvent treated control) [1] [%]
COc1ccc2c(c1)CCC1C2CC[C@@]2(C)C1CC[C@]2(C)O (stereo partly drawn) [Example 79]	98	126		
CC(=O)O[C@H]1CC[C@]2(C)C3C(=O)[C@@H](OC(C)=O)[C@]4(C)C5[C@H](C[C@H]4[C@@H]3CC[C@H]2C1)O[C@]1(CCC(C)CO1)[C@H]5C (stereo partly drawn) [Example 24]	103	134		
CC1CC[C@@]2(OC1)O[C@H]1C[C@H]3[C@@H]4CC[C@H]5C[C@@H](O)CC[C@]5(C)C4CC(=O)[C@]3(C)C1[C@@H]2C (stereo partly drawn) [Example 27]	97	122		
CC(=O)Oc1ccc2c(c1)CCC1C2CC[C@]2(C)C(=O)CCC12 (stereo partly drawn) [Example 76, Estrone acetate]	102	129		
CC(=O)OC1CCC2C3CC[C@H]4C[C@H](O)CC[C@]4(C)C3CC[C@]12C (stereo partly drawn) [Example 44]	99	129		
CC(CCC(=O)O)C1CCC2C3CC[C@@H]4C[C@H](OC(=O)c5ccccc5)CC[C@]4(C)C3C(=O)C[C@]12C (stereo partly drawn) [Example 6]	106	123		
CC(=O)OCC(=O)[C@H]1CCC2C3CC[C@@H]4C[C@H](OC(C)=O)CC[C@]4(C)C3[C@@H](O)C[C@@]21C (stereo partly drawn) [Example 52]	112	145		
CC(=O)O[C@@H]1CC[C@]2(C)C3C(=O)C[C@]4(C)C(C(C)CCC(=O)O)CCC4C3CC[C@@H]2C1 (stereo partly drawn) [Example 4]	112	130		
CC(=O)OCC(=O)C1=CCC2C3CC[C@H]4C[C@@H](OC(C)=O)CC[C@]4(C)C3CC[C@]12C (stereo partly drawn) [Example 59]	102	121		
CC(=O)O[C@@H]1CC[C@]2(C)C3CC[C@]4(C)[C@@H](C(=O)O)[C@@H](OC(C)=O)C[C@]4(O)C3CC[C@@H]2C1 (stereo partly drawn) [Example 19]	98	123		
C[C@]12CC[C@H](Cl)CC1=CCC1C2CC[C@]2(C)C(=O)CCC12 (stereo partly drawn) [Example 50]	98	123		
CC(C)CCCC(C)[C@H]1CCC2C3CC[C@H]4C[C@H](O)CC[C@]4(C)C3CC[C@@]21C (stereo partly drawn) [Example 34]	97	125		
C[C@]12CCC3C(CC[C@H]4C[C@@H](OC(=O)c5ccccc5)CC[C@]34C)C1CC(=O)C2 (stereo partly drawn) [Example 46]	112	131		
C[C@H](C(=O)O)C1CCC2C3CC=C4C[C@H](O)CC[C@]4(C)C3CC[C@@]21C (stereo partly drawn) [Example 16]	104	136		
CCC(=O)Oc1ccc2c(c1)CCC1C2CC[C@@]2(C)C1C[C@@H](OC(=O)CC)[C@@H]2OC(=O)CC (stereo partly drawn) [Example 75]	102	131		
C[C@]12C(=CCC1C1=CC(=O)OC1)C1CC[C@@H]3C[C@@H](O)CC[C@]3(C)C1C[C@H]2O (stereo partly drawn) [Example 81]	103	129		
CC(CCC(=O)O)C1CCC2C3CC[C@@H]4C[C@H](O)CC[C@]4(C)C3CC[C@]12C (stereo partly drawn) [Example 9]	98		119	

Compound	% UTR vs. PDN (normalized utrophin protein as % of PDN-treated sister cultures) [1] [%]	activity at 0.5 µM (Homo sapiens) [%]	activity at 0.5 µM [1] [%]	% UTR vs. DMSO (normalized utrophin protein over DMSO-solvent treated control) [1] [%]
CC(CCC(=O)O)C1CCC2C3C(=O)C[C@@H]4CC(=O)CC[C@]4(C)C3CC(=O)[C@]12C (stereo partly drawn) [Example 15]	92		117	
CC1CC[C@@]2(OC1)O[C@H]1C[C@H]3[C@@H]4CC[C@H]5CC(=O)CC[C@]5(C)C4CC[C@]3(C)C1[C@@H]2C (stereo partly drawn) [Example 28]	93	120		
C[C@]12CCC(=O)C[C@H]1CCC1C2C(=O)C[C@]2(C)C(C3=CC(=O)OC3)CC[C@]12O (stereo partly drawn) [Example 84]	98	123		
CC(=O)O[C@H]1CC[C@]2(C)C3=CC(=O)[C@]4(C)C5[C@H](C[C@H]4[C@@H]3CC[C@H]2C1)O[C@]1(CCC(C)CO1)[C@H]5C (stereo partly drawn) [Example 23]	103	129		
CC(=O)[C@@]12O[C@@H]1CC1C3CC=C4C[C@@H](O)CC[C@]4(C)C3CC[C@@]12C (stereo partly drawn) [Example 56]	105	137		
CCC(=O)O[C@H]1CC[C@]2(C)C3CC[C@]4(C)C(=O)CCC4C3CC[C@H]2C1 (stereo partly drawn) [Example 43]	99	128		
Norethisterone [Example 40]	106			134
CC(CCC(=O)O)C1CCC2C3CC=C4C[C@H](O)CC[C@]4(C)C3CC[C@]12C (stereo partly drawn) [Example 13]	96	126		
CC(=O)C1CCC2C3CC[C@H]4C[C@@H](O)CC[C@]4(C)C3CC[C@]12C (stereo partly drawn) [Example 62]	99	129		
CC(=O)O[C@H]1CC[C@]2(C)C3C=C[C@]4(C)C5[C@H](C[C@H]4[C@@H]3CC[C@H]2C1)O[C@]1(CCC(C)CO1)[C@H]5C (stereo partly drawn) [Example 25]	102	129		
C[C@]12CC[C@H](OC(=O)c3ccccc3)CC1=CCC1C2CC[C@@]2(C)C1CC[C@@H]2NC(=O)c1ccccc1 (stereo partly drawn) [Example 39]	106	121		
COC(=O)CCC(=O)O[C@H]1CC[C@]2(C)C3C(=O)[C@@H](O)[C@]4(C)C5[C@H](C[C@H]4[C@@H]3CC[C@H]2C1)O[C@]1(CCC(C)CO1)[C@H]5C (stereo partly drawn) [Example 26]	98	123		
CC(C)CCCC(C)[C@H]1CCC2C3C(=O)C[C@H]4C[C@@H](OC(=O)c5ccccc5)CC[C@]4(C)C3CC[C@@]21C (stereo partly drawn) [Example 30]	109	127		
CC(=O)OCC(=O)[C@H]1CCC2C3CCC4=CC(=O)CC[C@]4(C)C3CC[C@@]21C (stereo partly drawn) [Example 67]	96		120	
CC(C)CCCC(C)[C@H]1CCC2C3C[C@@H](O)[C@@]4(O)C[C@@H](O)CC[C@]4(C)C3CC[C@@]21C (stereo partly drawn) [Example 35]	94	122		
CC(CCC(=O)O)C1CCC2C3CC[C@@H]4CC(=O)CC[C@]4(C)C3CC[C@]12C (stereo partly drawn) [Example 8]	99		120	
